In brackets after ≈: the same amount, converted by molar mass. Where two headings read alike, the source gives them in different places.
Legend:
[1] = Redox / oxidation potentials stated in the description without method; format: physicochemical; settings: no method given
[2] = Solubility of mediator in water, evaluated visually; format: physicochemical; settings: for solubility: thermodynamic from solid, Table 1, water at 25° C., evaluated visually
Experimental: Potassium ferricyanide, 9,10-phenanthrenequinone, and sodium 9,10-phenanthrene-quinone-2-sulfonate were weighed out, and water was added to them. The solubility in water at 25° C. was evaluated visually.

[3] = background statement, cited from earlier work
[4] = Redox potential by cyclic voltammetry (glassy carbon working electrode, Ag|AgCl reference); format: physicochemical; settings: for Eox (V), potential value at the peak oxidation current / Ered (V), potential value at the peak reduction current: 1 mM in 100 mM phosphate buffer pH 7, sweep 0.1 V/second; for E0′ (V) [(Ered + Eox)/2], redox potential: average of Ered and Eox
Experimental: Potassium ferricyanide and sodium 9,10-phenanthrenequinone-2-sulfonate were each dissolved in an amount of 1 mM in a 100 mM phosphate buffer (pH 7), to prepare a potassium ferricyanide aqueous solution and a sodium 9,10-phenanthrenequinone-2-sulfonate aqueous solution.
These aqueous solutions were used to measure the redox potential by cyclic voltammetry for potassium ferricyanide and sodium 9,10-phenanthrenequinone-2-sulfonate. More specifically, the electrodes used here were as follows. • working electrode: glassy carbon electrode • counter electrode: platinum wire • reference electrode: silver/silver chloride (saturated potassium chloride) electrode (hereinafter referred to as Ag|AgCl).
A potentiostat was used for measurement. The various electrodes and the potentiostat were types commonly used in electrochemistry. This equipment can be purchased from BAS, for example.
The cyclic voltammetry involved searching for the potential applied to the working electrode, linearly with respect to time. The sweep rate was set to 0.1 V/second. First, a first potential was applied to the working electrode, and the electrode potential was swept to the negative side from the starting potential to a second potential that was more negative. Then, sweep was performed in which the electrode potential was flipped back to the positive side from the second potential to the first potential.
The first and second potentials were 0.7 V and −0.3 V, respectively, in the case of potassium ferricyanide, and were 0.2 V and −0.5 V in the case of sodium 9,10-phenanthrenequinone-2-sulfonate.
The potential discussed next is the potential with respect to Ag|AgCl.
If we calculate the redox potential as the average value [(Ered+Eox)/2] of the potential value at the peak oxidation current (Eox) and the potential value at the peak reduction current (Ered), the redox potential for the sodium 9,10-phenanthrenequinone-2-sulfonate is −150 mV and the redox potential for potassium ferricyanide is 225 mV. Thus, the redox potential for sodium 9,10-phenanthrenequinone-2-sulfonate measured using Ag|AgCl as a reference electrode was negative.
Also, compounds A, B, H′, I, I′, and J and disodium 9,10-phenanthrenequinone-2,7-disulfonate were subjected to cyclic voltammetry by the same operation as in FIG. 4. […]

[5] = FIG. 4, vs Ag|AgCl, 100 mM phosphate buffer pH 7

Structure (SMILES)	Solubility in water ([2]; Table 2)	Eox (V), potential value at the peak oxidation current ([4]; vs Ag|AgCl) [V]	Ered (V), potential value at the peak reduction current ([4]; vs Ag|AgCl) [V]	E0′ (V) [(Ered + Eox)/2], redox potential ([4]; vs Ag|AgCl) [V]	further results
O=C1C=C(S(=O)(=O)O)c2ccccc2C1=O [1,2-naphthoquinone-4-sulfonic acid]	–	–	–	–	redox potential of mediators pertaining to the invention [1]: −16 mV
O=C1C(=O)c2cc(S(=O)(=O)O)ccc2-c2ccccc21 [9,10-phenanthrenequinone-2-sulfonic acid]	–	–	–	–	redox potential of mediators pertaining to the invention [1]: −140 mV
O=C1C(=O)c2ccccc2-c2ccccc21 [9,10-phenanthrenequinone]	–	–	–	–	solubility [2]: < 1 mM; redox potential of mediators pertaining to the invention [1]: −180 mV
Cc1cc2nc3c(=O)[nH]c(=O)nc-3n(C[C@H](O)[C@H](O)[C@H](O)COP(=O)(O)OP(=O)(O)OC[C@H]3O[C@@H](n4cnc5c(N)ncnc54)[C@H](O)[C@@H]3O)c2cc1C [FAD, flavin adenine dinucleotide]	–	–	–	–	redox potential of coenzymes and prior-art mediator [3]: approximately −300 mV
O=C(O)c1cc(C(=O)O)c2c(n1)C(=O)C(=O)c1cc(C(=O)O)[nH]c1-2 [PQQ, pyrroloquinoline quinone]	–	–	–	–	redox potential of coenzymes and prior-art mediator [3]: approximately −200 mV
O=C1O[C@H]([C@@H](O)CO)C(O)=C1O [ascorbic acid]	–	–	–	–	oxidation potential ([3]; vs. Ag|AgCl): approximately −140 mV
O=C1C(=O)c2cc([N+](=O)[O-])ccc2-c2ccccc21 [compound A]	1 mM (≈ 253 µg/mL)	−0.10	−0.13	−0.12	–
Nc1ccc2c(c1)C(=O)C(=O)c1ccccc1-2 [compound B]	–	−0.19	−0.23	−0.21	Solubility in water [2]: 1 mM (≈ 223 µg/mL)
O=C1C(=O)c2cc(-c3ccc(S(=O)(=O)[O-])cc3)ccc2-c2ccccc21.[Na+] [compound H′]	20 mM	−0.14	−0.21	−0.18	–
O=C([O-])c1ccc(-c2ccc3c(c2)C(=O)C(=O)c2ccccc2-3)cc1.[Na+] [compound I]	5 mM	−0.14	−0.22	−0.18	–
O=C(NCCS(=O)(=O)[O-])c1ccc(-c2ccc3c(c2)C(=O)C(=O)c2ccccc2-3)cc1.[Na+] [compound I′]	20 mM	−0.14	−0.22	−0.18	–
O=C([O-])c1cc(C(=O)[O-])cc(-c2ccc3c(c2)C(=O)C(=O)c2ccccc2-3)c1.[Na+].[Na+] [compound J]	50 mM	−0.15	−0.23	−0.19	–
O=C1C(=O)c2cc(S(=O)(=O)[O-])ccc2-c2ccc(S(=O)(=O)[O-])cc21.[Na+].[Na+] [disodium 9,10-phenanthrenequinone-2,7-disulfonate]	over 200 mM	−0.06	−0.18	−0.12	–
O=C1C(=O)c2cccnc2-c2ncccc21 [phenanthroline quinone]	–	–	–	–	redox potential of coenzymes and prior-art mediator [3]: approximately 0 mV
O=C1C(=O)c2cc(S(=O)(=O)[O-])ccc2-c2ccccc21.[Na+] [sodium 9,10-phenanthrenequinone-2-sulfonate]	–	−0.12	−0.18	−0.15	Solubility in water (in words) [2]: good solubility; solubility [2]: > 80 mM; potential at the peak oxidation current [4, 5]: −120 mV; potential at the peak reduction current [4, 5]: −180 mV; redox reaction with a glassy carbon electrode ([4]; cyclic voltammetry): quickly and reversibly; redox potential lower than that of potassium ferricyanide ([4]; difference to potassium ferricyanide): about 400 mV; redox potential [(Ered+Eox)/2] ([4]; vs Ag|AgCl): −150 mV
